Results on four compounds are retold here after ChEMBL document CHEMBL1201862, “PubChem BioAssay data set” (2004).

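Assay format: 96-well plates, 48-hour exposure. GI50 marks 50% less growth.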 The source made the active and inactive calls. No stated cut-off is given here; in the data, active = GI50 up to about 1.1 µM and inactive = higher.

What all share (assay): NCI anticancer screen, dose series, 48 h
The test system of assay [1] is A549.
Assay [2] has as its system COLO 205.
Assay [3] has as its system EKVX.
The test system of assay [4] is HCC 2998.
For assay [5], the system named is HCT-15.
Assay [6] deals with IGROV-1.
Assay [7] relates to K562.
The subject of assay [8] is KM12.
Assay [9] has as its system LOX IMVI.
Assay [10] has as its system NCI-H226.
Assay [11] relates to NCI-H460.
For assay [12], the system named is OVCAR-4.
The test system of assay [13] is OVCAR-5.
Assay [14] deals with SF-268.
Assay [15] concerns SF-295.
Assay [16] deals with SK-MEL-28.
Assay [17] deals with SK-OV-3.
The subject of assay [18] is SN12C.

For the compound `COC(=O)CCCN(C)c1nc(N)n[nH]1`, the GI50 was > 100 µM (inactive) in assay [1]; > 100 µM (inactive) in [2]; > 100 µM (inactive) in assay [3]; > 100 µM (inactive) in assay [4]; greater than 100 µM in assay [5]; > 100 µM (inactive) in assay [6]. For the same compound, the GI50 in assay [7], in assay [8], in assay [9], in assay [10], in [11] and in assay [12] was > 100 µM (inactive) each time. The GI50 in assay [13], in [14], in assay [15], in assay [16], in assay [17] and in [18] was > 100 µM (inactive) in each case.
Consider `Clc1ncnc2c1ncn2CCCCCCCCCCCCn1cnc2c(Cl)ncnc21`, for which the GI50 is 11.7 µM (inactive) in assay [1]; 15.6 µM (inactive) in [2]; 16.7 µM (inactive) in assay [3]; 6.7 µM (inactive) in [4]; 13.1 µM in assay [5]; 4.69 µM (inactive) in assay [6]. The GI50 in [7] is 1.15 µM (inactive); in assay [8], 15.5 µM (inactive); in assay [9], 1.43 µM (inactive); in assay [10], 11.7 µM (inactive); in [11], 16.4 µM (inactive); in [12] it was 11.1 µM (inactive). The GI50 in assay [13] is 27.7 µM (inactive); in [14], 14.3 µM (inactive); in assay [15], 15.4 µM (inactive); in assay [16], 2.6 µM (inactive); in [17], 16.4 µM (inactive); in assay [18], 18.6 µM (inactive).
`COc1ccccc1NC(=O)C1=C(C)NC(C)=C(C(=O)Nc2ccccc2OC)C1c1cccc2ccccc12`: the GI50 in assay [1] is 21.9 µM (inactive); in assay [2], > 100 µM (inactive); in assay [3], > 100 µM (inactive); in [4] it was 83.8 µM (inactive); in assay [5], 28.4 µM; in assay [6], > 100 µM (inactive). Also, the GI50 in assay [7] is 13.3 µM (inactive); in assay [8] it was 37.8 µM (inactive); in assay [9] it was > 100 µM (inactive); in assay [10], 50.7 µM (inactive); in assay [11], 20.1 µM (inactive); in assay [12], 2.77 µM (inactive). Further, the GI50 in assay [13] is > 100 µM (inactive); in assay [14] it was 29.4 µM (inactive); in assay [15] it was 90.6 µM (inactive); in assay [16], 62.7 µM (inactive); in assay [17], > 100 µM (inactive); in [18], > 100 µM (inactive).
For the compound `COc1ccc(C2[C@H]3C(=O)N(c4ccc(Cc5ccc(N6C(=O)[C@@H]7ON(c8ccccc8)C(c8ccc(OC)cc8)[C@@H]7C6=O)cc5)cc4)C(=O)[C@H]3ON2c2ccccc2)cc1` (some centres not stated), the GI50 in assay [1] is > 100 µM (inactive); in [2], > 100 µM (inactive); in assay [3], > 100 µM (inactive); in assay [4] it was > 100 µM (inactive); in [5], greater than 100 µM; in [6], > 100 µM (inactive). Besides, the GI50 in assay [7], in [8], in [9], in assay [10], in [11] and in assay [12] was > 100 µM (inactive) each time. Moreover, the GI50 in [13], in assay [14], in assay [15], in assay [16], in assay [17] and in assay [18] was > 100 µM (inactive) throughout.
